For assay [1], the system named is olfactory cerebral arteries. Put plainly: Myogenic tone of isolated olfactory cerebral arteries after in vivo treatment. On the set-up: species or system mouse. How it is done: Induction of Subarachnoid Hemorrhage: A well-characterized model of experimental SAH (6) was used. Briefly, each mouse was anaesthetized (isoflurane) and its head was fixed in a stereotactic frame: a 7 mm incision was made along the midline of the anterior scalp and 0.9 mm hole drilled into the skull 4.5 mm anterior to the bregma. A spinal needle was advanced to the chiasmatic cistern: 80 μl of arterial blood was injected into the intracranial space over 10 seconds. […] Following injection, the scalp incision was closed. Buprenorphine (0.05 mg/kg; 0.5-1.0 ml volume) was administered twice/day (initiated immediately following the SAH surgical procedure). Sham-operated animals underwent an identical surgical procedure, with sterile saline injected instead of blood. Olfactory cerebral arteries were isolated at 2 days post-SAH induction.
Isolation and functional assessment of resistance arteries: Mouse olfactory (a first branch of the anterior cerebral artery) and PCAs were carefully dissected, cannulated onto micropipettes, stretched to their in vivo lengths and pressurized to 45 mmHg, as previously described (3,6); mouse skeletal muscle resistance arteries were dissected from the cremaster muscle, cannulated and pressurized to 60 mmHg. All functional experiments were conducted in 3-morpholinopropanesulfonic acid (MOPS) buffered saline at 37° C. with no perfusion. […]
Myogenic responses were elicited by step-wise 20 mmHg increases in transmural pressure from 20 mmHg to 80 mmHg (olfactory arteries) or 100 mmHg (posterior cerebral arteries and cremaster skeletal muscle resistance arteries). At each pressure step, vessel diameter (diaactive) was measured once a steady state was reached (5 min). Vessels requiring treatment (e.g., CFTR(inh)-172) were incubated with the reagent in MOPS for 30 min and myogenic responses were then assessed in the presence of that reagent. Following completion of all diaactive measurements, MOPS buffer was replaced with a Ca^2+-free version and maximal passive diameter (diamax) was recorded at each pressure step.
Myogenic tone was calculated as the percent constriction in relation to the maximal diameter at each respective transmural pressure: tone (% of diamax)=[(diamax−diaactive)/diamax]×100, where diaactive is the vessel diameter in MOPS containing Ca^2+ and diamax is the diameter in Ca^2+-free MOPS. Analyses of vasomotor responses to phenylephrine used the same calculation, only in this case, diaactive represents the vessel diameter at steady state following application of the given agent and diamax represents the maximal diameter measured under Ca^2+-free conditions.

Assay [2] has as its system mice with subarachnoid hemorrhage. Put plainly: MRI (FAIR) cerebral blood flow in subarachnoid hemorrhage mice. The conditions noted are these: SAH mice, 3 mg/kg daily for 2 days. In kind it is in vivo, mouse. From the text:
As described previously (10-12), we utilized a flow-sensitive alternating inversion recovery (FAIR) magnetic resonance imaging (MRI) technique (13) to evaluate cerebral blood flow (CBF). During imaging, mice were immobilized with 1.8% isoflurane delivered through a nose cone. To maintain body temperature, the MRI is equipped with embedded tubes that convect water from an external heater-pump. Respiration was monitored using a pneumatic pillow (SA Instruments, Stonybrook, USA); isoflurane levels were adjusted to maintain respiration at approximately 50 breaths/minute.
FAIR images were obtained using a 7 Tesla micro-MRI system (BioSpec 70/30 USR, Bruker BioSpin, Ettlingen, Germany), including the B-GA12 gradient insert, 72 mm inner diameter linear volume resonator for RF transmission, and anteriorly placed head coil for RF reception. […] FAIR images were evaluated by manual prescription (MIPAV, NIH, Bethesda, MD; http://mipav.cit.nih.gov) of sub-hemispheric regions-of-interest (ROIs), termed ‘global’, and local ROIs corresponding to cortical and sub-cortical parenchyma in forebrain sections; cortical and paraventricular parenchyma in middle sections; and cortical and midbrain parenchyma in hindbrain sections. […]

Setting [3] is: arteries from SAH mice, in vivo 3 mg/kg daily for 2 days.

Structures are written as SMILES. Entries after “also recorded” stand apart in the source; their conditions may differ.

Data on two compounds can be found in patent publication US20210346359A1, “Use of CFTR Modulators For Treating Cerebrovascular Conditions” (Qanatpharma AG, priority 2018, published 2021).

On to `Cc1ccc(NC(=O)C2(c3ccc4c(c3)OC(F)(F)O4)CC2)nc1-c1cccc(C(=O)O)c1` [lumacaftor], for which the “olfactory cerebral artery myogenic tone” value in assay [1] (setting [3]) is “normalizes; also recorded: reduces”. In assay [2], the “cerebral blood flow / cerebral perfusion” value was “normalizes; also recorded: significantly improves”.
For `O=C(Nc1ncc(C(c2ccccc2Cl)N2CCC(O)C2)s1)C1(c2ccc3c(c2)OCO3)CC1` (stereo not drawn) [C18, 1-(benzo[d][1,3]dioxol-5-yl)-N-(5-((2-chlorophenyl)(3-hydroxypyrrolidin-1-yl)methyl)thiazol-2-yl)cyclopropanecarboxamide], the “olfactory cerebral artery myogenic tone” value is “not susceptible; also recorded: not observed” in assay [1] (arteries from CFTR knockout mice, in vivo 3 mg/kg daily for 2 days); “normalizes; also recorded: reduces” in assay [1] (setting [3]); “does not affect; also recorded: does not alter” in assay [1] (arteries from sham-operated mice, 3 mg/kg i.p. daily for 2 days, 3 mg/kg). For the same compound, in assay [2], the “cerebral blood flow / cerebral perfusion” value was “restores; also recorded: significantly improves”.
